As usually defined, the IC50 is the concentration at which inhibition is half-maximal. Low values mean inhibition by little substance, high ones a need for much substance.

Holding throughout (type): cell-based
One assay deals with NCI-H69 (H69) cell line. As to the kind of experiment: Cell viability assay for NCI-H69 cell line. The note with it: Homo sapiens, NCI-H69, 120 h, 5 days, EZ-Cytox, 0.46-3000 nM. From the text:
(§1) The NCI-H69 (hereafter H69) and NCI-H526 (hereafter H526) cell lines were purchased from Korea Cell Line Bank (KCLB, Seoul, Korea). For cell culture, RPMI 1640 (Gibco, Cat. No. 22400-089; Lot. No. 2537146), FBS (Gibco, Cat. No. 16000-044; Lot. No. 2511328P), Penicillin/Streptomycin (PS) (Gibco, Cat. No. 15140-122; Lot. No. 2441887), 75T cell culture flask (SPL, Cat. No. 71075), 175T cell culture flask (SPL, Cat. No. 71175), 96-well cell culture plate (SPL, Cat. No. 30096), PBS pH 7.4 (Gibco, Cat. No. 10010-023; Lot. No. 2509235), TrypLE™ Express (Gibco, Cat. No. 12605-010; Lot. No. 2323417), Cell Counter (Hematocytometer)(As one, Cat. No. 4-458-01), and 0.4% Trypan Blue Solution (DYNEBIO, Cat. No. CBT3710; Lot. No. 20221111) were used.
(§2) The compounds of Examples were completely dissolved in DMSO (Sigma-Aldrich Cat. No. D2438, Lot. No. RNBL7287) and used in the experiment. 3×10^4 cells were seeded for each well of a 96-well plate (SPL), and the cells were cultured in total volume of 150 μl. Each compound was diluted 3-folds from the highest concentration of 3000 nM to the lowest concentration of 0.46 nM. After treating the compound to each well to make the total volume of 200 μl, it was cultured in a CO2 incubator (Thermo Fisher Science, Cat. No. 4111) for 5 days. Then, after treating EZ-Cytox (DOGEN, Cat.NO. EZ-3000, Lot. No. DLS2308) 20 μl in each well, it was cultured in CO2 incubator for 4 hours. The absorbance of the completely cultured sample was measured by setting the wavelength of a plate reader (BMG Labtech, CLARIOstar Plus) to […], and was measured after shaking for 3 minutes in a plate reader before measurement.
(§3) (A: IC50 is less than 20 nM, B: IC50 is 50 nM or less, C: IC50 is 100 nM or less)

Another assay deals with T1, PLK1 (Homo sapiens, UniProt P53350).
T1 construct: endogenous in cells; host or cells: HeLa LgBit (PLK1-HiBit KI): HeLa cells stably expressing LgBit, with CRISPR/Cas9 knock-in of HiBit at the endogenous PLK1 locus
T1 sequence (P53350 whole entry): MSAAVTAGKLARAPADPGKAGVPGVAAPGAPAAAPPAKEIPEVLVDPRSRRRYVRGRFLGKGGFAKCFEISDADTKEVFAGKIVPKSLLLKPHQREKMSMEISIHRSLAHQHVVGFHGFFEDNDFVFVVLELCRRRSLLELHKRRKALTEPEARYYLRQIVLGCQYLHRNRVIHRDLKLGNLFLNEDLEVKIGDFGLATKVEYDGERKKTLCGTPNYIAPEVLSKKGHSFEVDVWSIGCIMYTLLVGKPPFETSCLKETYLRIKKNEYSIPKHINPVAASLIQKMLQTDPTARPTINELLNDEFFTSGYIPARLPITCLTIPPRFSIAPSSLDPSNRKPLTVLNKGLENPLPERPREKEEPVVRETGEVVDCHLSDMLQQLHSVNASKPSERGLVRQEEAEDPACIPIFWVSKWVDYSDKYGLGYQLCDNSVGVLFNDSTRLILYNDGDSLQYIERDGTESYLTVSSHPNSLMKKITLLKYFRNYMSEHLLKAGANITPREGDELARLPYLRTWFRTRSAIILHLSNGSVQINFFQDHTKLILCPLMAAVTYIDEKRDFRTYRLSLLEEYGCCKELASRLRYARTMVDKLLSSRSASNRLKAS
Nature of the assay: Luciferase assay for PLK1 in HeLa LgBit (PLK1-HiBit KI) cell line. The note with it: released after thymidine block, compound 300 nM, luminescence after 9 hours. The protocol:
A HeLa cell line in which the LgBit vector was transfected and expressed stably was prepared. Then, after constructing gRNA and donor to express the HiBit amino acid sequence behind the C-terminal of the PLK1 gene, which was inherent in the cell, it was inserted into the cell together with a vector capable of expressing CRISPR/Cas9. Only the cells in which the insertion was completed and knock-in had progressed were selected, sub-cultured and used.
The compounds of Examples were completely dissolved in DMSO (Sigma-Aldrich Cat. No. D2438, Lot. No. RNBL5438) and used in the experiment.
In the case of HeLa LgBit (Plk1-HiBit KI), the compounds were treated after being released after thymidine block, and the process was as follows. Thymidine (Sigma-Aldrich Cat. No. T9250-5G) was completely dissolved in ddH2O and used in the experiment. For thymidine block, the products were treated with 2 mM of thymidine and then incubated for 24 hours. For release and chemical treatment, the medium was suctioned and washed with 1×PBS. TrypLE™ was added and incubated in 37° C. CO2 incubator (Thermo Fisher Science, Cat. No. 4111) for 5 mins. Cells neutralized by adding complete media were counted through a counter. For each well of a 96-well culture plate (SPL), 3.3×10^4 cells and a total medium volume of 150 μl were seeded and incubated in a CO2 incubator.
Each cell line was incubated in a CO2 incubator for 18 hours, and Endurazine (Promega, Cat. No. N257B) was added to each well to make up 4% of the total volume. After adding compounds of Examples in a 96-well white plate (SPL) to a concentration of 300 nM, the wavelength of the plate reader (BMG Labtech, CLARIOstar Plus) was set to 470-480 nM, and then the luminescence was tracked in real time.

In assay [1] the test system is NCI-H526 (H526) cell line. As to the kind of experiment: Cell viability assay for NCI-H526 cell line. The note with it: Homo sapiens, NCI-H526, 120 h, 5 days, EZ-Cytox, 0.46-3000 nM.
Excerpt: as §1, §2, §3

Bounds are passed on as bounds.

`CC[C@@H]1C(=O)N(C)c2cnc(Nc3ccc(C(=O)NN4CCC(C(N)CN5CCN(c6ccc(C7CCC(=O)NC7=O)cc6F)CC5)CC4)cc3OC)nc2N1C1CCCC1` (stereo partly drawn) [Compound 19, N-(4-(1-amino-2-(4-(4-(2,6-dioxopiperidin-3-yl)-2-fluorophenyl)piperazin-1-yl)ethyl)piperidin-1-yl)-4-(((R)-8-cyclopentyl-7-ethyl-5-methyl-6-oxo-5,6,7,8-tetrahydropteridin-2-yl)amino)-3-methoxybenzamide]: the IC50 (in the assay with NCI-H69 (H69) cell line; in assay [1]) was ≤ 0.05 µM each time. The “Value (luminescence value, PLK1-HiBit)” value at PLK1 stood at 0.132.

As for `CC[C@@H]1C(=O)N(C)c2cnc(Nc3ccc(C(=O)NC4CCC(N5CCC(CNc6cccc7c6CN(C6CCC(=O)NC6=O)C7=O)CC5)CC4)cc3OC)nc2N1C1CCCC1` (stereo partly drawn) [Compound 6, 4-(((R)-8-cyclopentyl-7-ethyl-5-methyl-6-oxo-5,6,7,8-tetrahydropteridin-2-yl)amino)-N-((1r,4R)-4-(4-(((2-(2,6-dioxopiperidin-3-yl)-1-oxoisoindolin-4-yl)amino)methyl)piperidin-1-yl)cyclohexyl)-3-methoxybenzamide], the figures for the IC50 (in the assay with NCI-H69 (H69) cell line; in assay [1]) were ≤ 0.05 µM and < 0.02 µM, respectively. Further, the “Value (luminescence value, PLK1-HiBit)” value on PLK1 is reported as 0.286.

As for `COc1cc(C(=O)NN2CCC(C(N)CN3CCN(c4ccc(C5CCC(=O)NC5=O)cc4F)CC3)CC2)ccc1Nc1ncc2c(n1)N(C(C)C)CC(F)(F)C(=O)N2C` (stereo not drawn) [Compound 31, N-(4-(1-amino-2-(4-(4-(2,6-dioxopiperidin-3-yl)-2-fluorophenyl)piperazin-1-yl)ethyl)piperidin-1-yl)-4-((7,7-difluoro-9-isopropyl-5-methyl-6-oxo-6,7,8,9-tetrahydro-5H-pyrimido[4,5-b][1,4]diazepin-2-yl)amino)-3-methoxybenzamide], the IC50 (with NCI-H69 (H69) cell line; in assay [1]) was ≤ 0.05 µM each time. Moreover, the “Value (luminescence value, PLK1-HiBit)” value on PLK1 is on record as 0.241.

With `CC[C@@H]1C(=O)N(C)c2cnc(Nc3ccc(-c4nnc(CNC5CCC(NCC6CCN(c7ccc(C8CCC(=O)NC8=O)cc7F)CC6)CC5)o4)cc3OC)nc2N1C1CCCC1` (stereo partly drawn) [Compound 17, 3-(4-(4-((((1r,4r)-4-(((5-(4-(((R)-8-cyclopentyl-7-ethyl-5-methyl-6-oxo-5,6,7,8-tetrahydropteridin-2-yl)amino)-3-methoxyphenyl)-1,3,4-oxadiazol-2-yl)methyl)amino)cyclohexyl)amino)methyl)piperidin-1-yl)-3-fluorophenyl)piperidine-2,6-dione], the IC50 with NCI-H69 (H69) cell line was ≤ 0.05 µM; in assay [1] it was < 0.02 µM. Further, the “Value (luminescence value, PLK1-HiBit)” value at PLK1 is reported as 0.172.

As for `CC[C@@H]1C(=O)N(C)c2cnc(Nc3ccc(C(=O)NN4CCC(C5CCN(CCc6ccc(C7CCC(=O)NC7=O)cc6)CC5)CC4)cc3OC)nc2N1C1CCCC1` (stereo partly drawn) [Compound 23, 4-(((R)-8-cyclopentyl-7-ethyl-5-methyl-6-oxo-5,6,7,8-tetrahydropteridin-2-yl)amino)-N-(1′-(4-(2,6-dioxopiperidin-3-yl)phenethyl)-[4,4′-bipiperidin]-1-yl)-3-methoxy benzamide], the IC50 (with NCI-H69 (H69) cell line; in assay [1]) was < 0.02 µM in each case. Also, the “Value (luminescence value, PLK1-HiBit)” value at PLK1 turned out to be 0.186.

Regarding `CC[C@@H]1C(=O)N(C)c2cnc(Nc3ccc(C(=O)NC4CCC(N5CCC(NCc6cccc7c6CN(C6CCC(=O)NC6=O)C7=O)CC5)CC4)cc3OC)nc2N1C1CCCC1` (stereo partly drawn) [Compound 12, 4-(((R)-8-cyclopentyl-7-ethyl-5-methyl-6-oxo-5,6,7,8-tetrahydropteridin-2-yl)amino)-N-((1r,4R)-4-(4-(((2-(2,6-dioxopiperidin-3-yl)-1-oxoisoindolin-4-yl)methyl)amino)piperidin-1-yl)cyclohexyl)-3-methoxybenzamide], the figures for the IC50 (with NCI-H69 (H69) cell line; in assay [1]) were ≤ 0.1 µM and ≤ 0.05 µM, respectively. The “Value (luminescence value, PLK1-HiBit)” value at PLK1 is given as 0.372.

As to `CC[C@@H]1C(=O)N(C)c2cnc(Nc3ccc(C(=O)NC4CCC(N5CCC(CNCc6ccc(C7CCC(=O)NC7=O)cc6)CC5)CC4)cc3OC)nc2N1C1CCCC1` (stereo partly drawn) [Compound 7, 4-(((R)-8-cyclopentyl-7-ethyl-5-methyl-6-oxo-5,6,7,8-tetrahydropteridin-2-yl)amino)-N-((1r,4R)-4-(4-(((4-(2,6-dioxopiperidin-3-yl)benzyl)amino)methyl)piperidin-1-yl)cyclohexyl)-3-methoxybenzamide], the IC50 in the assay with NCI-H69 (H69) cell line was ≤ 0.05 µM; in assay [1] it was < 0.02 µM. Moreover, the “Value (luminescence value, PLK1-HiBit)” value on PLK1 is recorded as 0.214.

As for `CC[C@@H]1C(=O)N(C)c2cnc(Nc3ccc(C(=O)NC4CCN(C(=O)C(N)CN5CCN(c6cccc7c6C(=O)N(C6CCC(=O)NC6=O)C7=O)CC5)CC4)cc3OC)nc2N1C1CCCC1` (stereo partly drawn) [Compound 9, N-(1-(2-amino-3-(4-(2-(2,6-dioxopiperidin-3-yl)-1,3-dioxoisoindolin-4-yl)piperazin-1-yl)propanoyl)piperidin-4-yl)-4-(((R)-8-cyclopentyl-7-ethyl-5-methyl-6-oxo-5,6,7,8-tetrahydropteridin-2-yl)amino)-3-methoxybenzamide], the IC50 was ≤ 0.1 µM in the assay with NCI-H69 (H69) cell line and < 0.02 µM in assay [1]. In addition, the “Value (luminescence value, PLK1-HiBit)” value at PLK1 is on record as 0.377.

Consider `CC[C@@H]1C(=O)N(C)c2cnc(Nc3ccc(C(=O)NC4CCC(N5CCN(CCc6ccc(C7CCC(=O)NC7=O)cc6)CC5)CC4)cc3OC)nc2N1C1CCCC1` (stereo partly drawn) [Compound 20, 4-(((R)-8-cyclopentyl-7-ethyl-5-methyl-6-oxo-5,6,7,8-tetrahydropteridin-2-yl)amino)-N-((1r,4R)-4-(4-(4-(2,6-dioxopiperidin-3-yl)phenethyl)piperazin-1-yl)cyclohexyl)-3-methoxybenzamide], for which the IC50 (in the assay with NCI-H69 (H69) cell line; in assay [1]) was < 0.02 µM in each case. The “Value (luminescence value, PLK1-HiBit)” value at PLK1 was 0.154.

Regarding `COc1cc(C(=O)NC2CCN(C(=O)CCN3CCN(c4ccc(NC5CCC(=O)NC5=O)cc4)CC3)CC2)ccc1Nc1ncc2c(n1)N(C1CCCC1)CC1(CC1)C(=O)N2C` (stereo not drawn) [Compound 29, 4-((9′-cyclopentyl-5′-methyl-6′-oxo-5′,6′,8′,9′-tetrahydrospiro[cyclopropane-1,7′-pyrimido[4,5-b][1,4]diazepin]-2′-yl)amino)-N-(1-(3-(4-(4-((2,6-dioxopiperidin-3-yl)amino)phenyl)piperazin-1-yl)propanoyl)piperidin-4-yl)-3-methoxybenzamide], the IC50 in the assay with NCI-H69 (H69) cell line is ≤ 0.1 µM; in assay [1], ≤ 0.05 µM. The “Value (luminescence value, PLK1-HiBit)” value on PLK1 is given as 0.267.

Turning to `CC[C@@H]1C(=O)N(C)c2cnc(Nc3ccc(C(=O)NC4CCC(N5CCN(CCc6ccc(NC7CCC(=O)NC7=O)cc6)CC5)CC4)cc3OC)nc2N1C1CCCC1` (stereo partly drawn) [Compound 4, 4-(((R)-8-cyclopentyl-7-ethyl-5-methyl-6-oxo-5,6,7,8-tetrahydropteridin-2-yl)amino)-N-((1r,4R)-4-(4-(4-((2,6-dioxopiperidin-3-yl)amino)phenethyl)piperazin-1-yl)cyclohexyl)-3-methoxybenzamide], the IC50 (with NCI-H69 (H69) cell line; in assay [1]) was < 0.02 µM each time. Also, the “Value (luminescence value, PLK1-HiBit)” value on PLK1 is 0.157.

Source of the values: US20260199367A1, “PLK1 DEGRADATION INDUCING COMPOUNDS WITH INCREASED RIGIDITY” (UPPTHERA, INC., priority 2022, published 2026).
